pIC50: −log10 of the molar value.

T1 sequence (P27487 31-766): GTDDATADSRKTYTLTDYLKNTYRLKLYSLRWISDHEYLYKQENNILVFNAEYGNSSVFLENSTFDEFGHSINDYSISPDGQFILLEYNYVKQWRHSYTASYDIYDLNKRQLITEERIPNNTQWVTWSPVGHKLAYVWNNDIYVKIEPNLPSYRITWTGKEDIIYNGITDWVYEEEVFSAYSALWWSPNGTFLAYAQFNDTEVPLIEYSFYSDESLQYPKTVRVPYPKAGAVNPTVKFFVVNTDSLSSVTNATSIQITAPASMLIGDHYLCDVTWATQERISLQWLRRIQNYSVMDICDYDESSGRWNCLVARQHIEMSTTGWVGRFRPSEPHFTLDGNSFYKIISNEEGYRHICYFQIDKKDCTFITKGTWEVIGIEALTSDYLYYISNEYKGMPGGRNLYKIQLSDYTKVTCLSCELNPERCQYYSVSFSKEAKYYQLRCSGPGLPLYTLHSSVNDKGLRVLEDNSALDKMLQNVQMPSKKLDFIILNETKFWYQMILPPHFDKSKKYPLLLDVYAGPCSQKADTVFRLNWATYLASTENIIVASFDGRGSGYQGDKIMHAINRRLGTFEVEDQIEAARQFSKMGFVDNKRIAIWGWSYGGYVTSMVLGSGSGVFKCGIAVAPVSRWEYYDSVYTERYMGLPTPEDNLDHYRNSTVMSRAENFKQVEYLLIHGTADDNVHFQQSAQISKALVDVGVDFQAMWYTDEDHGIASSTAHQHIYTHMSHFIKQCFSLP

This assay addresses T1, human DPP-IV (Homo sapiens, UniProt P27487).
T1 construct: made in house; host or cells: Pichia pastoris
Nature of the assay: DPP-IV activity assay (fluorogenic or colorimetric), IC50 determination. The format is biochemical. To be noted: natural human DPP-IV from plasma pool or recombinant human DPP-IV; substrate 50 μM (fluorogenic) or 200 μM (colorimetric); 37° C., pH 7.8. As for the experimental part: Activity of DPP-IV inhibitors are tested with natural human DPP-IV derived from a human plasma pool or with recombinant human DPP-IV. Human citrate plasma from different donors is pooled, filtered through a 0.2 micron membrane under sterile conditions and aliquots of 1 ml are shock frozen and stored at −120° C. until used. In the colorimetric DPP-IV assay 5 to 10 μl human plasma and in the fluorometric assay 1.0 μl of human plasma in a total assay volume of 100 μl is used as an enzyme source. […] Human DPP-IV is expressed and purified from the culture medium using conventional column chromatography including size exclusion and anion and cation chromatography. […] In the colorimetric DPP-IV assay 20 ng rec.-h DPP-IV and in the fluorometric assay 2 ng rec-h DPP-IV in a total assay volume of 100 μl is used as an enzyme source.
A 20 mM stock solution in 10% DMF/H2O is stored at −20° C. until use.
In the colorimetric assay H-Ala-Pro-pNA. […] A 10 mM stock solution in 10% MeOH/H2O is stored at −20° C. until use.
Initial rate constants are calculated by best fit linear regression.
DPP-IV activity assays are performed in 96 well plates at 37° C. in a total assay volume of 100 μl. The assay buffer consists of 50 mM Tris/HCl pH 7.8 containing 0.1 mg/ml BSA and 100 mM NaCl. Test compounds are solved in 100% DMSO, diluted to the desired concentration in 10% DMSO/H2O. The final DMSO concentration in the assay is 1% (v/v).
Compounds are with (10 minutes at 37° C.) and without preincubation with the enzyme. Enzyme reactions are started with substrate application followed by immediate mixing.
Kinetic parameters of the enzyme reaction are calculated at at least 5 different substrate concentrations and at least 5 different test compound concentrations.
As to `CCCCC1CN2C(CC1N)c1cc(OC)c(OC)cc1C1CCCCC12` (mixture of isomers) [Example 17, rac-7β-Butyl-11,12-dimethoxy-2,3,4,4a,6,7,8,9,9a,13bβ-decahydro-1H-pyrido[1,2-f]phenanthridin-8β-ylamine], the negative logarithm of the IC50 (pIC50) (as a rule, −log10 of the IC50, conventionally taken in molar units) was 6.85.
Next, `COc1cc2c(cc1OC)C1CC(N)C(CCC(C)C)CN1CC2` (racemic) [Example 5, rac-9,10-Dimethoxy-3β-(3-methyl-butyl)-1,3,4,6,7,11bβ-hexahydro-2H-pyrido[2,1-a]isoquinolin-2α-ylamine]: 6.24.
The result for `CCCCC1CN2C(CC1N)c1cc(OC)c(OC)cc1C1CCCCC12` (racemic) [Example 36, rac-7β-Butyl-11,12-dimethoxy-2,3,4,4a,6,7,8,9,9a,13bβ-decahydro-1H-pyrido[1,2-f]phenanthridin-8β-ylamine chlorohydrate (1:2)] reads 6.80; that for `CCCC[C@@H]1CN2CCc3cc(O)c(OC)cc3[C@H]2C[C@H]1N` (racemic) [Example 39, rac-2α-Amino-3β-butyl-10-methoxy-1,3,4,6,7,11bβ-hexahydro-2H-pyrido[2,1-a]isoquinolin-9-ol chlorohydrate (1:2)], 6.21; that for `CCCCC1CN2CCc3cc(O)c(OC)cc3C2CC1N` (racemic) [Example 43b, rac-2α-amino-3β-butyl-10-methoxy-1,3,4,6,7,11bβ-hexahydro-2H-pyrido[2,1-a]isoquinolin-9-ol], 6.47.
